Consider ten compounds from ChEMBL document CHEMBL1201862, “PubChem BioAssay data set” (2004).

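Where inhibition never reached the appropriate level, the endpoint shown equals the highest concentration tested. Otherwise, values were interpolated linearly from a five-concentration, 48-hour dose response in 96-well plates. The concentration for 50% growth inhibition is given as GI50.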 Calls of active or inactive are those of the source. No stated cut-off is given here; in the data, active = GI50 up to about 1.1 µM and inactive = higher. Bounds are passed on as bounds.

Among the test systems are MDA-MB-435; PC-3; OVCAR-5; OVCAR-4; SF-295; NCI-H23; A498; SW-620; HCT-116; HCT-15; IGROV-1; UACC-257; BT-549; COLO 205; SK-MEL-2; HOP-62; Malme-3M; HOP-92; LOX IMVI; CCRF-CEM.
Common to all, as to assay: NCI tumour cell line growth inhibition, 48 h

Regarding `Cc1nc([N+](=O)[O-])cn1-c1nc2ccccn2c1[N+](=O)[O-]`, the GI50 is > 100 µM (inactive) in the test on MDA-MB-435; 38.4 µM (inactive) in the test with PC-3; > 100 µM (inactive) in the test with OVCAR-5; > 100 µM (inactive) in the test with OVCAR-4; > 100 µM (inactive) in the test with SF-295; 47.8 µM (inactive) with NCI-H23. Further, the GI50 in the test with A498 is > 100 µM (inactive); in the test with SW-620 it was > 100 µM (inactive); with HCT-116 it was 74.3 µM (inactive); in the test with HCT-15, greater than 100 µM; with IGROV-1, 68.9 µM (inactive); in the test with UACC-257, 99.3 µM (inactive). Also, the GI50 in the test with BT-549 is > 100 µM (inactive); in the test with COLO 205, 90.4 µM (inactive); with SK-MEL-2 it was 43.4 µM (inactive); with HOP-62, 55.1 µM (inactive); in the test on Malme-3M it was 43.8 µM (inactive); with HOP-92 it was > 100 µM (inactive).

Consider `C[N+](C)(C)CCN(Cc1cccs1)c1ccccn1`, for which the GI50 was > 100 µM (inactive) with MDA-MB-435; > 100 µM (inactive) in the test on PC-3; > 100 µM (inactive) with OVCAR-4; > 100 µM (inactive) in the test with SF-295; 88.1 µM (inactive) in the test with NCI-H23; > 100 µM (inactive) in the test on A498. In addition, the GI50 in the test with SW-620 is > 100 µM (inactive); in the test on HCT-116 it was > 100 µM (inactive); in the test with LOX IMVI it was > 100 µM (inactive); in the test with HCT-15, greater than 100 µM; in the test on IGROV-1 it was > 100 µM (inactive); in the test on UACC-257 it was > 100 µM (inactive). In addition, the GI50 with BT-549 was 47.5 µM (inactive); with CCRF-CEM it was > 100 µM (inactive); in the test with COLO 205 it was 35.2 µM (inactive); in the test with SK-MEL-2, > 100 µM (inactive); with HOP-62, > 100 µM (inactive); with Malme-3M, > 100 µM (inactive). Besides, the GI50 in the test with HOP-92 is 3.6 µM (inactive).

Turning to `O=C(Nc1ccc(Cl)cc1)c1cc(S(=O)(=O)N2CCNNC2=O)c(S)cc1Cl`, the GI50 in the test with MDA-MB-435, with PC-3, with OVCAR-5, with OVCAR-4, with SF-295 and with A498 was > 100 µM (inactive) each time. The GI50 with SW-620 was > 100 µM (inactive); in the test with HCT-116 it was > 100 µM (inactive); in the test with LOX IMVI, > 100 µM (inactive); in the test with HCT-15 it was greater than 100 µM; in the test with IGROV-1 it was > 100 µM (inactive); with UACC-257, > 100 µM (inactive). In addition, the GI50 in the test on BT-549 is 35.7 µM (inactive); in the test on CCRF-CEM, 97.7 µM (inactive); with COLO 205 it was > 100 µM (inactive); in the test with SK-MEL-2 it was > 100 µM (inactive); in the test with Malme-3M, > 100 µM (inactive); in the test on HOP-92, 28.8 µM (inactive).

In the case of `CC1=C2C(=O)NN=C2CCN1c1ccc(Br)cc1`, the GI50 in the test on MDA-MB-435, with PC-3, in the test with OVCAR-5, in the test with OVCAR-4, in the test with SF-295 and in the test on NCI-H23 was > 100 µM (inactive) throughout. Besides, the GI50 in the test with A498 is 68.7 µM (inactive); in the test with SW-620 it was > 100 µM (inactive); in the test on HCT-116, > 100 µM (inactive); in the test with LOX IMVI, 62.8 µM (inactive); with HCT-15, 93.5 µM; in the test with IGROV-1, > 100 µM (inactive). Besides, the GI50 in the test on UACC-257 was > 100 µM (inactive); in the test on BT-549, 3.14 µM (inactive); with CCRF-CEM, 2.2 µM (inactive); with COLO 205 it was > 100 µM (inactive); in the test on SK-MEL-2 it was > 100 µM (inactive); with HOP-62, > 100 µM (inactive). Further, the GI50 in the test with Malme-3M was 35.3 µM (inactive); in the test with HOP-92, > 100 µM (inactive).

With `CCOC(=O)C(CS)NC(=O)CCCCCCCC(=O)NC(CS)C(=O)OCC` (stereo unspecified), the GI50 in the test with MDA-MB-435, with PC-3, in the test with OVCAR-5, in the test on OVCAR-4, in the test on SF-295 and in the test on NCI-H23 was > 100 µM (inactive) each time. Also, the GI50 in the test with A498 is > 100 µM (inactive); in the test with SW-620, > 100 µM (inactive); in the test on HCT-116, > 100 µM (inactive); in the test on LOX IMVI it was 86.9 µM (inactive); with HCT-15, greater than 100 µM; with IGROV-1, > 100 µM (inactive). In addition, the GI50 in the test with UACC-257 was 34.4 µM (inactive); in the test with BT-549, > 100 µM (inactive); with CCRF-CEM it was 21.2 µM (inactive); with COLO 205, > 100 µM (inactive); in the test with SK-MEL-2 it was 36.9 µM (inactive); in the test on HOP-62, > 100 µM (inactive). For the same compound, the GI50 with Malme-3M is 92 µM (inactive); in the test on HOP-92 it was > 100 µM (inactive).

As to `[O-][S@@+]1c2ccc3ccccc3c2N[C@@H]2[C@H]1[C@H]1C=C[C@@H]2C1`, the GI50 in the test on MDA-MB-435 is 24.9 µM (inactive); in the test with PC-3, 32.4 µM (inactive); in the test with OVCAR-5, > 100 µM (inactive); with OVCAR-4, 23.9 µM (inactive); in the test with SF-295, 40.5 µM (inactive); with NCI-H23, 35.3 µM (inactive). Further, the GI50 with A498 is 71.6 µM (inactive); in the test with SW-620, 34 µM (inactive); in the test on HCT-116, 39.5 µM (inactive); in the test on LOX IMVI, 31.6 µM (inactive); in the test with HCT-15, 33.1 µM; in the test with IGROV-1 it was 21.2 µM (inactive). For the same compound, the GI50 in the test on UACC-257 was 56.6 µM (inactive); in the test on BT-549, 32.4 µM (inactive); in the test on CCRF-CEM it was 23.6 µM (inactive); in the test with COLO 205, 46.6 µM (inactive); in the test on SK-MEL-2, 37.4 µM (inactive); in the test on HOP-62 it was 59.4 µM (inactive). The GI50 in the test on Malme-3M is 58.9 µM (inactive); in the test with HOP-92 it was 38.4 µM (inactive).

On to `CCCC[C@@H]1CCN2C[C@@H](O)[C@@H](O)[C@@H]2[C@H]1O`, for which the GI50 with MDA-MB-435, in the test on PC-3, with OVCAR-5, with OVCAR-4, with SF-295 and in the test on NCI-H23 was > 100 µM (inactive) throughout. Moreover, the GI50 in the test with A498 was > 100 µM (inactive); in the test on SW-620, > 100 µM (inactive); in the test on HCT-116, > 100 µM (inactive); in the test with LOX IMVI, > 100 µM (inactive); with HCT-15 it was greater than 100 µM; in the test with IGROV-1 it was > 100 µM (inactive). Also, the GI50 in the test on UACC-257, with BT-549, in the test with CCRF-CEM, with COLO 205, with SK-MEL-2 and with Malme-3M was > 100 µM (inactive) each time. Further, in the test on HOP-92, the GI50 is > 100 µM (inactive).

As to `CSc1ccc(/C=C/C(=O)c2nc3ccccc3[nH]2)cc1`, the GI50 was 6.22 µM (inactive) in the test on MDA-MB-435; 12.3 µM (inactive) in the test with PC-3; 25.2 µM (inactive) in the test with OVCAR-5; 14.1 µM (inactive) with OVCAR-4; 24.3 µM (inactive) in the test with SF-295; 23.6 µM (inactive) in the test on NCI-H23. Further, the GI50 was 13.6 µM (inactive) in the test with A498; 9.29 µM (inactive) with SW-620; 12.7 µM (inactive) with HCT-116; 14.5 µM (inactive) in the test on LOX IMVI; 11.8 µM in the test on HCT-15; 30.3 µM (inactive) with IGROV-1. The GI50 in the test with UACC-257 was 20.6 µM (inactive); with BT-549, 14.8 µM (inactive); in the test with CCRF-CEM, 3.49 µM (inactive); with COLO 205 it was 18.1 µM (inactive); with SK-MEL-2, 18.1 µM (inactive); with HOP-62, 24.3 µM (inactive). Further, the GI50 was 44.7 µM (inactive) with Malme-3M and 77.1 µM (inactive) with HOP-92.

Regarding `O=c1[nH]nc(-c2ccccc2)n1/N=C\c1ccccc1`, the GI50 in the test with MDA-MB-435 is > 100 µM (inactive); in the test on PC-3, > 100 µM (inactive); with OVCAR-5, > 100 µM (inactive); in the test on OVCAR-4, > 100 µM (inactive); in the test on SF-295 it was 29 µM (inactive); with NCI-H23 it was > 100 µM (inactive). For the same compound, the GI50 in the test on A498 was > 100 µM (inactive); in the test with SW-620 it was > 100 µM (inactive); with HCT-116, > 100 µM (inactive); with LOX IMVI, > 100 µM (inactive); in the test with HCT-15, greater than 100 µM; in the test with UACC-257, > 100 µM (inactive). In addition, the GI50 in the test with BT-549, with CCRF-CEM, with COLO 205, in the test on SK-MEL-2, in the test on HOP-62 and with Malme-3M was > 100 µM (inactive) throughout. Besides, the GI50 in the test with HOP-92 is > 100 µM (inactive).

On to `CC(NNC(=O)c1cc[n+]([BH2-]C#N)cc1)c1ccccc1F` (stereo unspecified), for which the GI50 is > 100 µM (inactive) in the test with MDA-MB-435; > 100 µM (inactive) with PC-3; > 100 µM (inactive) with OVCAR-5; > 100 µM (inactive) with OVCAR-4; > 100 µM (inactive) in the test on SF-295; 3.4 µM (inactive) in the test on A498. The GI50 was > 100 µM (inactive) in the test with SW-620; > 100 µM (inactive) in the test with HCT-116; > 100 µM (inactive) in the test on LOX IMVI; greater than 100 µM with HCT-15; > 100 µM (inactive) in the test on IGROV-1; > 100 µM (inactive) in the test with UACC-257. Also, the GI50 with BT-549, with CCRF-CEM, in the test on COLO 205, in the test on SK-MEL-2, in the test on Malme-3M and with HOP-92 was > 100 µM (inactive) each time.
